In patent US9254290B2, “Method for screening diabetes treating agent” (GWANGJU INSTITUTE OF SCIENCE AND TECHNOLOGY, priority 2010, dated 2016):
“Also recorded” adds a separate entry of the source.

Legend:
[1] = tested on: 3T3-L1 adipocytes; test: 6-NBDG uptake screening in 3T3-L1 adipocytes, 96-well, fluorescent microplate reader; assay type: cell-based, murine; settings: for effect on insulin-stimulated 6-NBDG uptake: 3 h pre-treatment with inhibitors; for NBDG uptake in adipocytes on re-testing of purified compounds: 250 nM-20 μM, compared with insulin and zinc sulfate; for effect of GLUT inhibitors (4,6-EDG, cytochalasin B) on compound-induced NBDG uptake: with 4,6-EDG (50 mM) or cytochalasin B
Procedure: 3T3-L1 murine fibroblasts were maintained in proliferation media, consisting of DMEM supplemented with 10% FBS, 50 units/mL penicillin and 50 μg/mL streptomycin. 3T3-L1 fibroblasts were induced to differentiate into adipocytes as follows: 48 h postconfluent cells (designated day 0) were cultured in DMEM supplemented 10% FBS, 0.5 mM 3-isobutyl-1-methyl-xanthine, 2 μg/ml dexamethasone, 1 μg/ml insulin, 50 units/mL penicillin and 50 μg/mL streptomycin for 2 days. Every 2 days thereafter, the cells were incubated with fresh DMEM supplemented with 10% FBS and 1 μg/ml insulin. 3T3-L1 adipocytes were used for experiments 8 days after the induction of differentiation.
(§1) Three cell lines were chosen to test if NBDG can be used to detect insulin-stimulated glucose uptake in a 96 well plate culture format, which is more suitable for cell-based screening to identify novel insulin mimetic compounds. The cell lines chosen were Huh7 hepatocytes, C2C12 myoblasts and 3T3-L1 pre-adipocytes, which represent the major body tissue types that are sensitive to the action of insulin (liver, muscle and fat). 10^4 cells/well were seeded in a black, 96 well tissue culture plate (BD Falcon, NJ, USA). C2C12 myoblasts and 3T3-L1 adipocytes were induced to undergo differentiation into myotubes and adipocytes, respectively, to compare the NDBG signal in proliferating and differentiated cells. NBDG uptake was measured following treatment with 10 nM or 100 nM insulin, and 1 μM or 10 μM rosiglitazone (an insulin-sensitizing agent), using a fluorescent microplate reader (SpectraMAX GeminiXS and SoftMax Pro V5 software, Molecular Devices, CA, USA). Cells were cultured in serum-free low glucose culture media for 3 h before the addition of insulin.
To test the NBDG-based screening system, a combinatorial chemical library of 576 triazine-based small molecules was screened at a concentration of 5 μM. The combinatorial library was provided by Professor Young-Tae Chang, Department of Chemistry, National University of Singapore.
To test if this screening protocol could detect new insulin mimetic compounds, a combinatorial chemical library of 576 triazine-based small molecules was screened.

[2] = tested on: 3T3-L1 adipocytes; test: Detection of apoptosis (Apo-TRACE staining, microplate quantification); assay type: cell-based, murine; settings: 5 μM, 24 hrs
Procedure: 3T3-L1 pre-adipocytes were cultured to confluence in 24-well plates and induced to differentiate into adipocytes. The induction of apoptosis was detected using the Apo-TRACE™ Apoptotic Cell Staining Kit (Sigma-Aldrich, SL, USA), which employs a fluorescent compound that responds to alterations in plasma membrane potential and phospholipid scrambling, which are hallmarks of apoptotic cells. Apoptotic cells were visualized by microscopy under UV illumination (Olympus IX81, Japan) equipped with MetaMorph 7.5 image capture software (Molecular Devices, CA, USA)). Images were processed with Photoshop CS4 software (Adobe Systems Incorporated, CA, USA). Apoptosis was quantified by fluorescent microplate reader analysis of cell lysate.

[3] = tested on: 3T3-L1 adipocytes; test: Commercial enzyme-based glucose content assay (Biovision); assay type: cell-based, murine; settings: tested in triplicate
Procedure: For comparison and validation of our new screening based on NBDG uptake, we used a commercial, enzyme-based glucose assay provided by Biovision Inc., CA, USA. 3T3-L1 adipocytes were seeded at 5×10^4 cells/well in a 96-well culture plate. 24 h later, culture media was changed and adipocytes were cultured in serum-free low glucose DMEM for 3 h prior to drug treatment. Cells were lysed with 100 μL Cell Lytic M (Sigma-Aldrich, SL, USA) and 50 μL lysate was used for assay.

[4] = tested on: VCAM-1; test: VCAM-1 expression in HAEC exposed to hyperglycemia (Western blot); assay type: cell-based, human; settings: 30 mM glucose 5 days; 24 hrs treatment with 5 μM
Procedure: (§2) HAEC were exposed to hyperglycemia (30 mM glucose) for days and treated with 5 μM compounds AP-III-a4 or AP-I-h7 or 100 nM insulin for 3 hrs prior to addition of THP-1 monocytes. […] Data is representative of three independent experiments. 5 mM glucose=normoglycemia; 30 mM glucose=hyperglycemia (5 days treatment); AP-III-a4=hyperglycemia (5 days treatment) and 24 hrs treatment with 5 μM AP-III-a4; AP-I-h7=hyperglycemia (5 days treatment) and 24 hrs treatment with […]; MLB=hyperglycemia (5 days treatment) and 48 hrs treatment with 50 μM magnesium lithospermate B.
Human aortic endothelial cells were supplied by Cambrex (NJ, USA) and cultured in EBM-2 growth media supplemented with the EGM-2 bullet kit. THP-1 human monocytic cells were cultured in RPMI-1640 medium supplemented with […] 2-mercaptoethanol, 10% fetal bovine serum and antibiotics. Cells were cultured in growth media containing 5 mM glucose for the normoglycemia condition or 30 mM glucose for the hyperglycemia condition.
Proteins were separated by 10% SDS-PAGE and transferred onto […] nitrocellulose (Bio-Rad, CA, USA). Densitometry was carried out using TINA 2.10e software (Catholic University Medical College (GmBH), Germany).

[5] = tested on: 3T3-L1 adipocytes; test: Epinephrine-stimulated free fatty acid release assay; assay type: cell-based, murine; settings: for inhibition of epinephrine-stimulated free fatty acid release: 5 μM compound, 10 μM epinephrine
Procedure: Epinephrine-stimulated free fatty acid (FFA) release from adipocytes was measured using the Free Fatty Acid Quantification Kit (Biovision, CA, USA), following the method previously described^13. Confluent 3T3-L1 adipocytes in a 24 well plate were cultured for 3 h in serum-free culture media. Adipocytes were then treated with 10 μM epinephrine dissolved in saline to induce FFA […] release. Drug of interest was added 10 min before the addition of epinephrine. Cell lysate was collected and 50 μL of the organic phase was used for assay. Palmitic acid was used to generate the standard curve.

[6] = tested on: insulin resistant 3T3-L1 adipocytes; test: NBDG uptake in adipocytes rendered insulin resistant with TNF-α; assay type: cell-based, murine
Excerpt: (§3) Error=SD. *=P<0.05 compared to 3T3-L1 adipocytes in the same treatment group. […] Data is representative of three independent experiments.

[7] = tested on: human aortic endothelial cells (HAEC); test: Monocyte-endothelial cell adhesion assay (THP-1 monocytes, hyperglycemia); assay type: cell-based; settings: 30 mM glucose; 5 μM compound for 3 hrs before THP-1 monocytes
Procedure: as §2
Human aortic endothelial cells were supplied by Cambrex (NJ, USA) and cultured in EBM-2 growth media supplemented with the EGM-2 bullet kit. […]
The adhesion of mouse inflammatory peritoneal (IP) exudate macrophages to endothelial cell monlayers was carried out as previously described.^14 Briefly, endothelial cells were cultured to confluence in 6-well culture plates and treated with drug with or without high glucose (30 mM for 48 h) culture media. […] The unbound cells were washed three times with serum-free RPMI-1640 medium, and the total number of adherent cells was counted in four randomly selected optical fields per well (100× magnification; Olympus microscope CKX41, Japan; microscopic images were captured with a DigiEye 330 digital camera (Dewinter, India) and Biowizard 4.3 software (Dewinter, India)). […]

[8] = tested on: 3T3-L1 adipocytes and pre-adipocytes; test: Fluorescent microscope analysis of NBDG uptake in mixed cultures of adipocytes and pre-adipocytes; assay type: cell-based, murine; settings: 10 μM compound; adipocytes vs pre-adipocytes (fibroblast-like)
Excerpt: as §3

[9] = tested on: 3T3-L1 adipocytes; test: Necrosis / cell death by trypan blue exclusion; assay type: cell-based; settings: 24 h after treatment
Procedure: Necrosis was detected by the ability of cells to exclude the dye, trypan blue. 3T3-L1 adipocytes were cultured to confluence in 6-well plates and treated with drug. Adipocytes were then harvested by trpsinization and resuspended in 1 mL PBS. A 50 μL aliquot was taken and stained with an equal volume of 0.4% trypan blue solution (Sigma, SL, USA). Cells that could not exclude dye were classified as necrotic and quantified using a hemocytometer.

[10] = tested on: human aortic endothelial cells (HAEC); settings: cited from earlier work
[11] = tested on: VCAM-1; settings: cited from earlier work
[12] = tested on: 3T3-L1 adipocytes; test: 2-NBDG uptake in insulin-responsive cell lines, 96-well; assay type: cell-based, murine; settings: 10 nM or 100 nM insulin, 30 min; compared to Huh7, C2C12 myoblasts/myotubes, 3T3-L1 pre-adipocytes
Procedure: as §1

CC1OC[C@H]2O[C@H](O)[C@H](O)[C@@H](O)[C@@H]2O1 (stereo partly drawn) [4,6-EDG, 4,6-ethylidine-D-glucose, reference compound]
effect on insulin-stimulated 6-NBDG uptake ([1]; 100 nM insulin): reduced insulin-stimulated uptake of 6-NBDG; also recorded: inhibited

CCCCNc1nc(NCCc2ccccc2)nc(Nc2ccc(CC(=O)NCCOCCOCCN)cc2)n1 [AP-I-h7]
induction of apoptosis [2]: did not induce apoptosis | cellular glucose content [3]: induced an increase in cellular glucose content | VCAM-1 expression / upregulation in hyperglycemic conditions [4]: decreased VCAM-1 upregulation; also recorded: reduced the expression of VCAM-1 | concentration required to produce insulin mimetic activity in adipocytes [5]: 5 µM | inhibition of epinephrine-stimulated free fatty acid release [5]: could inhibit epinephrine-stimulated free fatty acid release; also recorded: inhibit 10 μM epinephrine-mediated FFA release | sensitivity of compound-induced NBDG uptake to insulin resistance [6]: sensitive to the induction of insulin resistance | monocyte adhesion in hyperglycemic conditions [7]: decreased monocyte adhesion; also recorded: reduced monocyte adhesion | NBDG uptake in adipocytes on re-testing of purified compounds [1]: can increase NBDG uptake; also recorded: promote NBDG uptake in adipocytes | effect of GLUT inhibitors (4,6-EDG, cytochalasin B) on compound-induced NBDG uptake [1]: sensitive to exo- and endofacial inhibitors of GLUT | cell-type preference of NBDG uptake [8]: preferentially taken up in the adipocytes; also recorded: preferentially occurs in adipocytes rather than fibroblasts

NCCOCCOCCNC(=O)Cc1ccc(Nc2nc(NCc3ccc(F)cc3)nc(NCC3CCCCC3)n2)cc1 [AP-III-a4]
induction of apoptosis [2]: did not induce apoptosis | cellular glucose content [3]: induced an increase in cellular glucose content | VCAM-1 expression / upregulation in hyperglycemic conditions [4]: decreased VCAM-1 upregulation; also recorded: reduced the expression of VCAM-1 | concentration required to produce insulin mimetic activity in adipocytes [5]: 5 µM | inhibition of epinephrine-stimulated free fatty acid release [5]: could inhibit epinephrine-stimulated free fatty acid release; also recorded: inhibit 10 μM epinephrine-mediated FFA release | sensitivity of compound-induced NBDG uptake to insulin resistance [6]: sensitive to the induction of insulin resistance | monocyte adhesion in hyperglycemic conditions [7]: decreased monocyte adhesion; also recorded: reduced monocyte adhesion | NBDG uptake in adipocytes on re-testing of purified compounds [1]: can increase NBDG uptake; also recorded: promote NBDG uptake in adipocytes | effect of GLUT inhibitors (4,6-EDG, cytochalasin B) on compound-induced NBDG uptake [1]: sensitive to exo- and endofacial inhibitors of GLUT | cell-type preference of NBDG uptake [8]: preferentially taken up in the adipocytes; also recorded: preferentially occurs in adipocytes rather than fibroblasts

CCCCNc1nc(Nc2ccc(CC(=O)NCCOCCOCCN)cc2)nc(N2CCCCC2)n1 [AP-IV-e3]
induction of apoptosis [2]: induced apoptosis | NBDG uptake in adipocytes on re-testing of purified compounds [1]: can increase NBDG uptake; also recorded: promote NBDG uptake in adipocytes | effect of GLUT inhibitors (4,6-EDG, cytochalasin B) on compound-induced NBDG uptake [1]: sensitive to exo- and endofacial inhibitors of GLUT | induction of cell death (trypan blue exclusion) [9]: induced cell death

NCCOCCOCCNC(=O)Cc1ccc(Nc2nc(NCC3CCCCC3)nc(N3CCCCC3)n2)cc1 [AP-IV-e4]
induction of apoptosis [2]: induced apoptosis | NBDG uptake in adipocytes on re-testing of purified compounds [1]: can increase NBDG uptake; also recorded: promote NBDG uptake in adipocytes | effect of GLUT inhibitors (4,6-EDG, cytochalasin B) on compound-induced NBDG uptake [1]: sensitive to exo- and endofacial inhibitors of GLUT | induction of cell death (trypan blue exclusion) [9]: induced cell death

C=C1[C@@H](C)[C@H]2[C@H](Cc3ccccc3)NC(=O)[C@]23OC(=O)/C=C/[C@H](O)CCC[C@@H](C)C/C=C/[C@H]3[C@@H]1O [cytochalasin B, reference compound]
effect on insulin-stimulated 6-NBDG uptake ([1]; 100 nM insulin): reduced insulin-stimulated uptake of 6-NBDG; also recorded: inhibited

O=S(=O)([O-])[O-].[Zn+2] [zinc sulfate, reference compound]
effect of GLUT inhibitors (4,6-EDG, cytochalasin B) on compound-induced NBDG uptake [1]: reduced NBDG uptake

insulin: Insulin from bovine pancreas
cellular glucose content [3]: induced an increase in cellular glucose content | effect on monocyte-endothelial adhesion (literature) [10]: no inhibitory effect on monocyte-endothelial adhesion | sensitivity of 6-NBDG uptake in adipocytes to the agent ([1]; 1 μM rosiglitazone, 100 nM insulin): sensitive | effect on adhesion molecule expression in endothelial cells (literature) [11]: not to inhibit adhesion molecule expression | 2-NBDG uptake after insulin treatment [12]: largest increase in 2-NBDG uptake
